# According to patent US20160279187A1, “CALPAIN INHIBITORS FOR IBD AND COLORECTAL CANCER TREATMENT” (UNIVERSITY OF HAWAII, priority 2013, published 2016):
# Where a SMILES comes first, the peptide text is derived from it. The star is where a group is joined. Cbz = O=C(OCc1ccccc1)*; CH2F = FC*
# Assays:
# [1] = tested on: CT-26 WT mouse colon cancer cells; assay: proliferation assay (MTS), CT-26.WT; format: cell-based; details: 20 μg/ml, vs DMSO
# Protocol: (§1) Bone marrow derived macrophages (BMDM) were prepared as previously described by methods known to those skilled in the art. On day 5 of culture, 2×10^6 BMDM were seeded in 6-well plates and the following day were primed for 18 h with TNFα (20 ng/mL), followed by 1 h stimulation with E. faecalis (1 μg/mL; ATCC). Stimulation with E. faecalis was conducted in the presence of the zLLY-CH2F calpain-2 inhibitor (20 μg/mL) or DMSO as a control. Media was removed from treated BMDM, centrifuged at 300×g for 5 min and supernatent analyzed using the Cytometric Bead Array Mouse Inflammation Kit (BD Biosciences, San Jose, Calif.). Cytokine data were analyzed using Flowjo software (Ashland, Oreg.) and GraphPad Prism version 4.0 (GraphPad, La Jolla, Calif.). Cell pellets were lysed and analyzed for IκB and NFκB by Western blot as previously described (Miyazaki, T. et al. Journal of Atherosclerosis and Thrombosis 20, 228-237, 2013). […] Each day 4 wells were quantified using Celltiter MTS reagent (Promega) and the resulting signal was used to generate a proliferation curve. Calpain activity was measured using a Calpain activity assay kit (BioVision, Inc., Milpitas, Calif.) as previously described. Colons were harvested on day 4 and calpain activity measured. […]
# [2] = tested on: HT-29 human colorectal cancer cells; assay: proliferation assay (MTS), HT-29; format: cell-based; details: HT-29, 20 μg/ml, vs DMSO
# Protocol: as §1
# [3] = target: T1, M-Calpain activity in CT-26 WT cells (Mus musculus, UniProt O08529); assay: Calpain Activity Assay Kit (BioVision), CT-26.WT; format: cell-based; details: vs DMSO, 1 hour
# T1 construct: endogenous in cells; host or cells: CT-26.WT mouse colon cancer cells
# T1 sequence (O08529 20-700 limits assumed): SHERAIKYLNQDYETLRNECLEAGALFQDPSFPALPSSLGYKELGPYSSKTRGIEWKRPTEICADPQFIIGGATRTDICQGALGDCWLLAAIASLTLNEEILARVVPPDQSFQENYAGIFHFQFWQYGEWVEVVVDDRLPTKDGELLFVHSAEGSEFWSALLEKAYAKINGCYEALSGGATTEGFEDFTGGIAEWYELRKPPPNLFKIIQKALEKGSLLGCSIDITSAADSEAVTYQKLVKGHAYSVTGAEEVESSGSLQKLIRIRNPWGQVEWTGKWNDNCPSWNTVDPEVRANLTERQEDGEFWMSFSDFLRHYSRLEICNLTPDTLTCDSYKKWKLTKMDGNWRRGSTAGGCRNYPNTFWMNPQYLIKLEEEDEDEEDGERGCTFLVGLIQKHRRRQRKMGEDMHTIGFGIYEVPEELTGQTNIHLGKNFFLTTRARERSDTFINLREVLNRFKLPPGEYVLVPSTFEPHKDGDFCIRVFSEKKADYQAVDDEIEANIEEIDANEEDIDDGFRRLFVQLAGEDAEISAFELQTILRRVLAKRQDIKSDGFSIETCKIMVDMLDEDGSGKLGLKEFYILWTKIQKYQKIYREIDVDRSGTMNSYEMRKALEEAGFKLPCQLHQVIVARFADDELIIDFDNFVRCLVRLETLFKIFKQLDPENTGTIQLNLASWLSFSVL
# T1 sequence (O88456 1-268 partner): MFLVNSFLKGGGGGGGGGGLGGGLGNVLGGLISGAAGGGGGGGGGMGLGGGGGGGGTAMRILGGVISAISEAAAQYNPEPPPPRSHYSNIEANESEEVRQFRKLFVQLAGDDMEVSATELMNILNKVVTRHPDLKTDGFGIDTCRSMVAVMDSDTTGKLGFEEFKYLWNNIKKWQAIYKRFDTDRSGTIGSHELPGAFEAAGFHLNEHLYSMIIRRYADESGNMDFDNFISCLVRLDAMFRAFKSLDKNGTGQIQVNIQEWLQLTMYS
# Protocol: as §1
# [4] = target: cathespin L (Homo sapiens, UniProt P07711); details: off-target protein; Li et al., Biochemistry 2006; cited from earlier work
# Sequence of cathespin L (P07711 114-333): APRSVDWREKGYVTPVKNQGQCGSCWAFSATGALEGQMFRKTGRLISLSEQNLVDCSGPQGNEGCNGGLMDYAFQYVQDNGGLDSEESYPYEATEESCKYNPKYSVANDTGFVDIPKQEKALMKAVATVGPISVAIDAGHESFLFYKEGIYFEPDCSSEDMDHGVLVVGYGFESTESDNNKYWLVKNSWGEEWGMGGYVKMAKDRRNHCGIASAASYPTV
structure (smiles),measurement,setting,value
"CC(C)C[C@H](NC(=O)OCc1ccccc1)C(=O)N[C@@H](CC(C)C)C(=O)N[C@@H](Cc1ccc(O)cc1)C(=O)CF [zLLY-CH2F, Z-LLY-CH2F] (Cbz-Leu-Leu-Tyr-CH2F)",proliferation,[1],reduction
same,proliferation,[2],reduction
same,M-Calpain activity,[3],reduced
same,"rate constant k2, inhibition of cathespin L",[4],"680,000 M^−1s^−1"
